# Measurements as given in patent publication US6617350B2, “Inhibitors of aspartyl protease” (priority 1999, dated 2003).
# pIC50, pKi: −log10 of the molar value. Where two headings read alike, the source gives them in different places.
# Legend:
# HIV-1 protease = HIV-1 protease (Human immunodeficiency virus type 1 group M subtype B, UniProt P04585); assay: biochemical
# HIV-1 (strain IIIB) = assay: microbe, parasite or virus in culture; format: cell-based; details: Human immunodeficiency virus 1, IIIB, MT4, Table 12; anti-viral potency in MT-4 cells; read-out: IC50
# [1] = Table 12, HIV-1 protease, read-out: Ki
SMILES,pKi (HIV-1 protease; [1]),pIC50 (HIV-1 (strain IIIB)),pKi (HIV-1 protease)
"CNC(=O)CNC(=O)NCCCC(C)(C)CN(CC(O)C(Cc1ccccc1)NC(=O)OC1COC2OCCC12)S(=O)(=O)c1ccc(OC)cc1 [Compound 225, (3R,3aS,6aR)hexahydrofuro[2,3-b]furan-3-yl N-(1S,2R)-1-benzyl-2-hydroxy-4-[(4-methoxyphenyl)sulfonyl]-6,6-dimethyl-11,14-dioxo-4,10,12,15-tetraazahexadec-1-ylcarbamate and (3S,3aR,6aS)hexahydrofuro[2,3-b]furan-3-yl N-(1S,2R)-1-benzyl-2-hydroxy-4-[(4-methoxyphenyl)sulfonyl]-6,6-dimethyl-11,14-dioxo-4,10,12,15-tetraazahexadec-1-ylcarbamate]",> 9.00,< 6.00,
"CCOC(=O)NCCC(C)(C)CN(CC(O)C(Cc1ccccc1)NC(=O)OC1COC2OCCC12)S(=O)(=O)c1ccc(OC)cc1 [Compound 226, (3R,3aS,6aR)hexahydrofuro[2,3-b]furan-3-yl N-((1S,2R)-1-benzyl-3-4-[(ethoxycarbonyl)amino]-2,2-dimethylbutyl[(4-methoxyphenyl)sulfonyl]amino-2-hydroxypropyl)carbamate and (3S,3aR,6aS)hexahydrofuro[2,3-b]furan-3-yl N-((1S,2R)-1-benzyl-3-4-[(ethoxycarbonyl)amino)-2,2-dimethylbutyl[(4-methoxyphenyl)sulfonyl]amino-2-hydroxypropyl)carbamate]",> 9.00,≥ 7.00,
"COc1ccc(S(=O)(=O)N(CC(O)[C@H](Cc2ccccc2)NC(=O)OC2COC3OCCC23)CC(C)(C)CCC(C)=NO)cc1 (stereo partly drawn) [Compound 227, (3R,3aS,6aR)-Hexahydrofuro[2,3-b]furan-3-yl N-((1S,2R)-1-benzyl-3-(2,2-dimethyl-5-hydroxyiminohexyl)[(4-methoxyphenyl)sulfonyl]amino-2-hydroxypropyl)carbamate]",> 9.00,≥ 7.00,
"CNC(=O)CNC(=O)NCCC(C)(C)CN(CC(O)C(Cc1ccccc1)NC(=O)OC1COC2OCCC12)S(=O)(=O)c1ccc(OC)cc1 [Compound 228, (3R,3aS,6aR)hexahydrofuro[2,3-b]furan-3-yl N-(1S,2R)-1-benzyl-2-hydroxy-4-[(4-methoxyphenyl)sulfonyl]-6,6-dimethyl-10,13-dioxo-4,9,11,14-tetraazapentadec-1-ylcarbamate and (3S,3aR,6aS)hexahydrofuro[2,3-b]furan-3-yl N-(1S,2R)-1-benzyl-2-hydroxy-4-[(4-methoxyphenyl)sulfonyl]-6,6-dimethyl-10,13-dioxo-4,9,11,14-tetraazapentadec-1-ylcarbamate]",> 9.00,6.30 to 7.00,
"CCOC(=O)NCCCC(C)(C)CN(CC(O)C(Cc1ccccc1)NC(=O)OC1COC2OCCC12)S(=O)(=O)c1ccc(OC)cc1 [Compound 230, (3R,3aS,6aR)hexahydrofuro[2,3-b]furan-3-yl N-((1S,2R)-1-benzyl-3-5-[(ethoxycarbonyl)amino]-2,2-dimethylpentyl[(4-methoxyphenyl)sulfonyl]amino-2-hydroxypropyl)carbamate and (3S,3aR,6aS)hexahydrofuro[2,3-b]furan-3-yl N-((1S,2R)-1-benzyl-3-5-[(ethoxycarbonyl)amino]-2,2-dimethylpentyl[(4-methoxyphenyl)sulfonyl]amino-2-hydroxypropyl)carbamate]",> 9.00,≥ 7.00,
"COc1ccc(S(=O)(=O)N(CC(O)[C@H](Cc2ccccc2)NC(=O)OC2COC3OCCC23)CC(C)(C)CCOC(N)=O)cc1 (stereo partly drawn) [Compound 235, (3R,3aS,6aR)-Hexahydrofuro[2,3-b]furan-3-yl N-((1S,2R)-1-benzyl-3-(4-carbamoyloxy-2,2-dimethylbutyl)[(4-methoxyphenyl)sulfonyl]amino-2-hydroxypropyl)carbamate]",> 9.00,≥ 7.00,
"COc1ccc(S(=O)(=O)N(CC(O)C(Cc2ccccc2)NC(=O)OC2COC3OCCC23)CC(C)(C)CCNC(=O)N2CCOCC2)cc1 [Compound 236, (3R,3aS,6aR)hexahydrofuro[2,3-b]furan-3-yl N-((1S,2R)-1-benzyl-3-2,2-dimethyl-4-[(morpholinocarbonyl)amino]butyl[(4-methoxyphenyl)sulfonyl]amino-2-hydroxypropyl)carbamate and (3S,3aR,6aS)hexahydrofuro[2,3-b]furan-3-yl N-((1S,2R)-1-benzyl-3-2,2-dimethyl-4-[(morpholinocarbonyl)amino]butyl[(4-methoxyphenyl)sulfonyl]amino-2-hydroxypropyl)carbamate]",> 9.00,≥ 7.00,
"COc1ccc(S(=O)(=O)N(CC(O)C(Cc2ccccc2)NC(=O)OC2COC3OCCC23)CC(C)(C)CCCNC(=O)N2CCOCC2)cc1 [Compound 237, (3R,3aS,6aR)hexahydrofuro[2,3-b]furan-3-yl N-((1S,2R)-1-benzyl-3-2,2-dimethyl-5-[(morpholinocarbonyl)amino]pentyl[(4-methoxyphenyl)sulfonyl]amino-2-hydroxypropyl)carbamate and 3S,3aR,6aS)hexahydrofuro[2,3-b]furan-3-yl N-((1S,2R)-1-benzyl-3-2,2-dimethyl-5-[(morpholinocarbonyl)amino]pentyl[(4-methoxyphenyl)sulfonyl]amino-2-hydroxypropyl)carbamate]",> 9.00,≥ 7.00,
"COc1ccc(S(=O)(=O)N(CC(O)C(Cc2ccccc2)NC(=O)OC2COC3OCCC23)CC(C)(C)CCN(C)C)cc1 [Compound 238, (3R,3aS,6aR)hexahydrofuro[2,3-b]furan-3-yl N-((1S,2R)-1-benzyl-3-[4-(dimethylamino)-2,2-dimethylbutyl][(4-methoxyphenyl)sulfonyl]amino-2-hydroxypropyl)carbamate and (3S,3aR,6aS)hexahydrofuro[2,3-b]furan-3-yl N-((1S,2R)-1-benzyl-3-[4-(dimethylamino)-2,2-dimethylbutyl][(4-methoxyphenyl)sulfonyl]amino-2-hydroxypropyl)carbamate]]",> 9.00,6.30 to 7.00,
"CC(=O)CCC(C)(C)CN(CC(O)[C@H](Cc1ccccc1)NC(=O)OC1COC2OCCC12)S(=O)(=O)c1ccc2c(c1)OCO2 (stereo partly drawn) [Compound 240, (3R,3aS,6aR)-Hexahydrofuro[2,3-b]furan-3-yl N-((1S,2R)-1-benzyl-3-(2,2-dimethyl-5-oxohexyl)[(3,4-methylenedioxyphenyl)sulfonyl]amino-2-hydroxypropyl)carbamate]",> 9.00,≥ 7.00,
"CNc1cccc(S(=O)(=O)N(C[C@@H](O)[C@H](Cc2ccccc2)NC(=O)O[C@H]2CO[C@H]3OCC[C@H]32)CC(C)(C)CCCCN)c1 [Compound 241, (3R,3aS,6aR)hexahydrofuro[2,3-b]furan-3-yl N-[(1S,2R)-3-((6-amino-2,2-dimethylhexyl)[3-(methylamino)phenyl]sulfonylamino)-1-benzyl-2-hydroxypropyl]carbamate]",> 9.00,6.30 to 7.00,
"COc1ccc(S(=O)(=O)N(CC(O)C(Cc2ccccc2)NC(=O)OC2COC3OCCC23)CC(C)(C)CCNC(=O)OC(C)C)cc1 [Compound 242, (3R,3aS,6aR)hexahydrofuro[2,3-b]furan-3-yl N-((1S,2R)-1-benzyl-2-hydroxy-3-4-[(isopropoxycarbonyl)amino]-2,2-dimethylbutyl[(4-methoxyphenyl)sulfonyl]aminopropyl)carbamate and (3S,3aR,6aS)hexahydrofuro[2,3-b]furan-3-yl N-((1S,2R)-1-benzyl-2-hydroxy-3-4-[(isopropoxycarbonyl)amino]-2,2-dimethylbutyl[(4-methoxyphenyl)sulfonyl]aminopropyl)carbamate]",,≥ 7.00,> 9.00
"COc1ccc(S(=O)(=O)N(CC(O)C(Cc2ccccc2)NC(=O)OC2COC3OCCC23)CC(C)(C)CCCNC(=O)OC(C)C)cc1 [Compound 243, (3R,3aS,6aR)hexahydrofuro[2,3-b]furan-3-yl N-((1S,2R)-1-benzyl-2-hydroxy-3-5-[(isopropoxycarbonyl)amino]-2,2-dimethylpentyl[(4-methoxyphenyl)sulfonyl]aminopropyl)carbamate and (3S,3aR,6aS)hexahydrofuro[2,3-b]furan-3-yl N-((1S,2R)-1-benzyl-2-hydroxy-3-5-[(isopropoxycarbonyl)amino]-2,2-dimethylpentyl[(4-methoxyphenyl)sulfonyl]aminopropyl)carbamate]",,≥ 7.00,> 9.00
"CC(C)(CCCCN)CN(CC(O)C(Cc1ccccc1)NC(=O)OC1COC2OCCC12)S(=O)(=O)c1ccc2c(c1)OCO2 [Compound 244, (3R,3aS,6aR)hexahydrofuro[2,3-b]furan-3-yl N-(1S,2R)-3-[(6-amino-2,2-dimethylhexyl)(1,3-benzodioxol-5-ylsulfonyl)amino]-1-benzyl-2-hydroxypropylcarbamate]",> 9.00,6.30 to 7.00,
"CC(C)(CCCCN)CN(CC(O)C(Cc1ccccc1)NC(=O)OC1COC2OCCC12)S(=O)(=O)c1ccc2c(c1)OCCO2 [Compound 245, (3R,3aS,6aR)hexahydrofuro[2,3-b]furan-3-yl N-(1S,2R)-3-[(6-amino-2,2-dimethylhexyl)(2,3-dihydro-1,4-benzodioxin-6-ylsulfonyl)amino]-1-benzyl-2-hydroxypropylcarbamate]",> 9.00,6.30 to 7.00,
"CNc1cccc(S(=O)(=O)N(C[C@@H](O)[C@H](Cc2ccccc2)NC(=O)O[C@H]2CO[C@H]3OCC[C@H]32)CC(C)(C)CCCCNC(=O)OC)c1 [Compound 246, (3R,3aS,6aR)hexahydrofuro[2,3-b]furan-3-yl N-[(1S,2R)-1-benzyl-2-hydroxy-3-(6-[(methoxycarbonyl)amino]-2,2-dimethylhexyl[3-(methylamino)phenyl]sulfonylamino)propyl]carbamate]",> 9.00,≥ 7.00,
"CNc1cccc(S(=O)(=O)N(C[C@@H](O)[C@H](Cc2ccccc2)NC(=O)O[C@H]2CO[C@H]3OCC[C@H]32)CC(C)(C)CCCCNC(=O)N(C)C)c1 [Compound 247, (3R,3aS,6aR)hexahydrofuro[2,3-b]furan-3-yl N-[(1S,2R)-1-benzyl-3-((6-[(dimethylamino)carbonyl]amino-2,2-dimethylhexyl)[3-(methylamino)phenyl]sulfonylamino)-2-hydroxypropyl]carbamate]",> 9.00,≥ 7.00,
